Experimental data reported in paper PMC6105827, “Antitrypanosomal 8-Hydroxy-Naphthyridines Are Chelators of Divalent Transition Metals” (Antimicrobial Agents and Chemotherapy, 2018).

Test: Spectrophotometric UV-Vis titration and Job's plot of binding to divalent cations
Type: physicochemical
Method: UV-visible (UV-Vis) titrations were carried out essentially as described previously ([65], [66]). Aliquots of metal divalent cations (concentrated stocks were made initially in water and then diluted in methanol) were added to a fixed concentration of 50 μM 8-HNT compound in methanol. After each aliquot addition, the incubation mixture was left to stabilize for 5 min at 25°C prior to scanning. Wavelength scanning was carried out at between 260 and 510 nm by using a UV-2401 PC UV-Vis spectrophotometer (Shimadzu). For Job's plot analyses ([66]), the combined concentration of 8-HNT and cation was fixed at 200 μM, and only the molar ratio of cation versus 8-HNT compound varied. Changes of the absorption at 475, 390, and 375 nm were indicative of cation complex formation with compounds 1 to 3, respectively. Specific absorbance at these wavelengths was determined and plotted against the molar ratio of compound to cation to determine complex stoichiometry ([66]).

SMILES: Cc1nnc(-c2nc(NCc3ccc(Cl)cc3)c3cccnc3c2O)[nH]1 [Compound 1]
- Zn^2+ concentration at which binding is saturable (50 μM compound, absorbance at 475 nm): 25 µM
- Job's plot intercept, molar fraction (compound to Zn^2+) (combined concentration 200 μM in methanol, absorbance 475/390/375 nm): 0.34
